Assay results from patent US4675390A, “2-deoxypentose derivatives” (Eli Lilly and Company, priority 1984, dated 1987).
Converted amounts (≈) assume the structure as drawn.

Key:
CCRF-CEM cell line = experiment: growth inhibition of human leukemic cells; assay type: cell-based; conditions: read-out: IC50 (concentration giving 50% growth inhibition)
[1] = system: spontaneously hypertensive rats (SHR); experiment: blood pressure lowering in spontaneously hypertensive rats (tailcuff method); assay type: in vivo; conditions: 5 mg/kg subcutaneous, 3-5 hours
Excerpt: Certain of the compounds of this invention are also active in lowering the blood pressure of spontaneously hypertensive rats (SHR). For example, β-methyl 2-deoxy-3-phosphocholyl-5-n-hexadecyl-D-ribofuranoside, when administered subcutaneously to SHR at various dose levels, produced the hypotensive effects set forth in Table III below.
*measured by tailcuff method

[2] = system: X-5563, a plasma cell myeloma; experiment: antitumor activity against transplanted X-5563 plasma cell myeloma in mice; assay type: in vivo; conditions: daily for 10 days with 3 day delay
Excerpt: Compounds according to formula II above are also active against transplanted tumors in mice. Table II which follows gives the results of testing α-methyl 2-deoxy-3-phosphocholyl-5-n-hexadecyl-D-ribofuranoside against X-5563, a plasma cell myeloma. In the table, column 1 gives the dosage levels, column 2 toxic deaths, column 3, the percent tumor growth inhibition and column 4, the dosage schedule or regimen. Ten mice were given each dosage ip and a group of 20 mice used as controls.

Row | IC50 (CCRF-CEM cell line) | Structure (SMILES) | other results
1 | 6.2 µg/mL (≈ 12.2 µM) | CCCCCCCCCCCCCCCCOC[C@H]1OCC[C@H]1OP(=O)([O-])OCC[N+](C)(C)C [drawing 21 (R = H, R^1 = H), 1,2-dideoxy-3-phosphocholyl-5-n-hexadecyl-D-xylofuranose] | –
2 | 3.7 µg/mL (≈ 7.29 µM) | CCCCCCCCCCCCCCCCOC[C@H]1OCC[C@@H]1OP(=O)([O-])OCC[N+](C)(C)C [drawing 19 (R = H, R^1 = H), 1,2-dideoxy-3-phosphocholyl-5-n-hexadecyl-D-ribofuranose] | –
3 | 3.4 µg/mL (≈ 6.7 µM) | CCCCCCCCCCCCCCCCO[C@H]1CCO[C@@H]1COP(=O)([O-])OCC[N+](C)(C)C [drawing 20 (R = H, R^1 = H), 1,2-Dideoxy-3-n-hexadecyl-5-phosphocholyl-D-ribofuranose] | –
4 | 6.2 µg/mL (≈ 11.9 µM) | CCCCCCCCCCCCCCCCO[C@H]1CC(=O)O[C@@H]1COP(=O)([O-])OCC[N+](C)(C)C [drawing 20 (R, R^1 = Carbonyl), 2-deoxy-3-n-hexadecyl-5-phosphocholyl-D-ribofuran-1-one] | –

The next lines start with the molecule.

Row | Structure (SMILES) | IC50 (CCRF-CEM cell line) | other results
5 | CCCCCCCCCCCCCCCCOC[C@H]1O[C@H](OC)C[C@H]1OP(=O)([O-])OCC[N+](C)(C)C [drawing 21 (R = MeO, R^1 = H), α-Methyl 2-deoxy-3-phosphocholyl-5-n-hexadecyl-D-xylofuranoside] | 5.3 µg/mL (≈ 9.86 µM) | –
6 | CCCCCCCCCCCCCCCCOC[C@H]1O[C@@H](OC)C[C@@H]1OP(=O)([O-])OCC[N+](C)(C)C [drawing 19 (R = H, R^1 = MeO), β-methyl 2-deoxy-3-phosphocholyl-5-n-hexadecyl-D-ribofuranoside] | 6.2 µg/mL (≈ 11.5 µM) | Heart Rate [1]: No effect; Blood pressure effect ([1]; tailcuff method): -20 mmHg
7 | CCCCCCCCCCCCCCCCO[C@H]1C[C@H](OC)O[C@@H]1COP(=O)([O-])OCC[N+](C)(C)C [drawing 20 (R = H, R^1 = MeO), β-Methyl 2-deoxy-3-n-hexadecyl-5-phosphocholyl-D-ribofuranoside] | < 2.1 µg/mL | –
8 | CCCCCCCCCCCCCCCCOC[C@H]1OC(O)C[C@@H]1OP(=O)([O-])OCC[N+](C)(C)C (stereo partly drawn) [drawing 19 (R = H(OH), R^1 = OH(H)), 2-deoxy-3-phosphocholyl-5-n-hexadecyl-D-ribose] | 6.4 µg/mL (≈ 12.2 µM) | –
9 | CCCCCCCCCCCCCCCCO[C@H]1CC(O)O[C@@H]1COP(=O)([O-])OCC[N+](C)(C)C (stereo partly drawn) [drawing 20 (R = H(OH), R^1 = OH(H)), 2-Deoxy-3-n-hexadecyl-5-phosphocholyl-D-ribose] | 13.2 µg/mL (≈ 25.2 µM) | –
10 | CCCCCCCCCCCCCCCCOC[C@H]1O[C@H](OC)C[C@@H]1OP(=O)([O-])OCC[N+](C)(C)C [drawing 19 (R = MeO, R^1 = H), α-methyl 2-deoxy-3-phosphocholyl-5-n-hexadecyl-D-ribofuranoside] | 2.3 µg/mL (≈ 4.28 µM) | Percent inhibition of Tumor growth ([2]; 25 mg/kg ip): 37%; Toxic deaths ([2]; 25 mg/kg ip): 0/10; Percent inhibition of Tumor growth ([2]; 50 mg/kg ip): 61%; Toxic deaths ([2]; 50 mg/kg ip): 2/10
11 | CCCCCCCCCCCCCCCCO[C@H]1C[C@@H](OC)O[C@@H]1COP(=O)([O-])OCC[N+](C)(C)C [drawing 20 (R = MeO, R^1 = H), Methyl 2-deoxy-3-n-hexadecyl-5-phosphocholyl-D-ribofuranoside] | 5.2 µg/mL (≈ 9.67 µM) | –
